{"source": "PubChem BioAssay (NCI)", "experiment_in_all_cases": "growth of human tumour cells (NCI), 48 h", "key": {"UACC-62 melanoma": {"tested_on": "UACC-62 melanoma"}, "SK-MEL-28 melanoma": {"tested_on": "SK-MEL-28 melanoma"}, "SNB-78 CNS": {"tested_on": "SNB-78 CNS"}, "DMS 273 small cell lung": {"tested_on": "DMS 273 small cell lung"}, "M14 melanoma": {"tested_on": "M14 melanoma"}, "NCI-H226 lung": {"tested_on": "NCI-H226 lung"}, "RXF 393 renal": {"tested_on": "RXF 393 renal"}, "HOP-62 NSCLC": {"tested_on": "HOP-62 NSCLC"}, "IGROV1 ovarian": {"tested_on": "IGROV1 ovarian"}, "SF-539 CNS": {"tested_on": "SF-539 CNS"}, "DLD-1 colon": {"tested_on": "DLD-1 colon"}, "HL-60(TB) leukemia": {"tested_on": "HL-60(TB) leukemia"}, "ACHN renal": {"tested_on": "ACHN renal"}, "UO-31 renal": {"tested_on": "UO-31 renal"}, "CAKI-1 renal": {"tested_on": "CAKI-1 renal"}, "K-562 leukemia": {"tested_on": "K-562 leukemia"}, "786-0 renal": {"tested_on": "786-0 renal"}, "SN12C renal": {"tested_on": "SN12C renal"}, "OVCAR-3 ovarian": {"tested_on": "OVCAR-3 ovarian"}, "NCI-H460 lung": {"tested_on": "NCI-H460 lung"}, "A498 renal": {"tested_on": "A498 renal"}, "LOX IMVI melanoma": {"tested_on": "LOX IMVI melanoma"}, "COLO 205 colon": {"tested_on": "COLO 205 colon"}, "SK-MEL-5 melanoma": {"tested_on": "SK-MEL-5 melanoma"}, "EKVX NSCLC": {"tested_on": "EKVX NSCLC"}, "TK-10 renal": {"tested_on": "TK-10 renal"}, "SNB-19 CNS": {"tested_on": "SNB-19 CNS"}, "SK-OV-3 ovarian": {"tested_on": "SK-OV-3 ovarian"}, "SNB-75 CNS": {"tested_on": "SNB-75 CNS"}, "MALME-3M melanoma": {"tested_on": "MALME-3M melanoma"}, "DMS 114 small cell lung": {"tested_on": "DMS 114 small cell lung"}, "HCT-15 colon": {"tested_on": "HCT-15 colon"}, "OVCAR-8 ovarian": {"tested_on": "OVCAR-8 ovarian"}, "HT29 colon": {"tested_on": "HT29 colon"}, "XF 498 CNS": {"tested_on": "XF 498 CNS"}, "M19-MEL melanoma": {"tested_on": "M19-MEL melanoma"}, "SF-268 CNS": {"tested_on": "SF-268 CNS"}, "RPMI-8226 leukemia": {"tested_on": "RPMI-8226 leukemia"}, "CCRF-CEM leukemia": {"tested_on": "CCRF-CEM leukemia"}, "NCI-H522 lung": {"tested_on": "NCI-H522 lung"}, "HOP-92 NSCLC": {"tested_on": "HOP-92 NSCLC"}, "U251 CNS": {"tested_on": "U251 CNS"}, "OVCAR-4 ovarian": {"tested_on": "OVCAR-4 ovarian"}, "SF-295 CNS": {"tested_on": "SF-295 CNS"}, "OVCAR-5 ovarian": {"tested_on": "OVCAR-5 ovarian"}, "KM20L2 colon": {"tested_on": "KM20L2 colon"}, "SW-620 colon": {"tested_on": "SW-620 colon"}, "LXFL 529 NSCLC": {"tested_on": "LXFL 529 NSCLC"}, "A549 NSCLC": {"tested_on": "A549 NSCLC"}, "SK-MEL-2 melanoma": {"tested_on": "SK-MEL-2 melanoma"}, "KM12 colon": {"tested_on": "KM12 colon"}, "UACC-257 melanoma": {"tested_on": "UACC-257 melanoma"}, "HCT-116 colon": {"tested_on": "HCT-116 colon"}}, "note": "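Interpolation was linear, between the two tested concentrations surrounding the appropriate level; five concentrations were tested over 48 hours in 96-well plates. Definition used: TGI = concentration required for complete inhibition of growth.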", "data": [{"smiles": "CCOC(=O)C1=C(O)CSC1=Nc1ccc(N=C2SCC(O)=C2C(=O)OCC)cc1", "values": [{"measurement": "TGI", "setting": "UACC-62 melanoma", "value": 44.2, "unit": "µM"}, {"measurement": "TGI", "setting": "SK-MEL-28 melanoma", "value": 40.8, "unit": "µM"}, {"measurement": "TGI", "setting": "SNB-78 CNS", "value": "> 100", "unit": "µM"}, {"measurement": "TGI", "setting": "DMS 273 small cell lung", "value": 42.8, "unit": "µM"}, {"measurement": "TGI", "setting": "M14 melanoma", "value": 52.5, "unit": "µM"}, {"measurement": "TGI", "setting": "NCI-H226 lung", "value": 44, "unit": "µM"}, {"measurement": "TGI", "setting": "RXF 393 renal", "value": 32.6, "unit": "µM"}, {"measurement": "TGI", "setting": "HOP-62 NSCLC", "value": 65.9, "unit": "µM"}, {"measurement": "TGI", "setting": "IGROV1 ovarian", "value": 60.6, "unit": "µM"}, {"measurement": "TGI", "setting": "SF-539 CNS", "value": 43, "unit": "µM"}, {"measurement": "TGI", "setting": "DLD-1 colon", "value": 50.4, "unit": "µM"}, {"measurement": "TGI", "setting": "HL-60(TB) leukemia", "value": "> 100", "unit": "µM"}, {"measurement": "TGI", "setting": "ACHN renal", "value": 67.4, "unit": "µM"}, {"measurement": "TGI", "setting": "UO-31 renal", "value": 37.7, "unit": "µM"}, {"measurement": "TGI", "setting": "CAKI-1 renal", "value": 30.8, "unit": "µM"}, {"measurement": "TGI", "setting": "K-562 leukemia", "value": "> 100", "unit": "µM"}, {"measurement": "TGI", "setting": "786-0 renal", "value": 31.4, "unit": "µM"}, {"measurement": "TGI", "setting": "SN12C renal", "value": 71.8, "unit": "µM"}, {"measurement": "TGI", "setting": "OVCAR-3 ovarian", "value": "> 100", "unit": "µM"}, {"measurement": "TGI", "setting": "NCI-H460 lung", "value": 92, "unit": "µM"}, {"measurement": "TGI", "setting": "A498 renal", "value": 50.5, "unit": "µM"}, {"measurement": "TGI", "setting": "LOX IMVI melanoma", "value": 32.1, "unit": "µM"}, {"measurement": "TGI", "setting": "COLO 205 colon", "value": 32.5, "unit": "µM"}, {"measurement": "TGI", "setting": "SK-MEL-5 melanoma", "value": 44.3, "unit": "µM"}, {"measurement": "TGI", "setting": "EKVX NSCLC", "value": 96.7, "unit": "µM"}, {"measurement": "TGI", "setting": "TK-10 renal", "value": 94.7, "unit": "µM"}, {"measurement": "TGI", "setting": "SNB-19 CNS", "value": "> 100", "unit": "µM"}, {"measurement": "TGI", "setting": "SK-OV-3 ovarian", "value": 65.3, "unit": "µM"}, {"measurement": "TGI", "setting": "SNB-75 CNS", "value": 61.4, "unit": "µM"}, {"measurement": "TGI", "setting": "MALME-3M melanoma", "value": 40.4, "unit": "µM"}, {"measurement": "TGI", "setting": "DMS 114 small cell lung", "value": 59.6, "unit": "µM"}, {"measurement": "TGI", "setting": "HCT-15 colon", "value": 57.7, "unit": "µM"}, {"measurement": "TGI", "setting": "OVCAR-8 ovarian", "value": "> 100", "unit": "µM"}, {"measurement": "TGI", "setting": "HT29 colon", "value": 60.2, "unit": "µM"}, {"measurement": "TGI", "setting": "XF 498 CNS", "value": 42, "unit": "µM"}, {"measurement": "TGI", "setting": "M19-MEL melanoma", "value": 61.2, "unit": "µM"}, {"measurement": "TGI", "setting": "SF-268 CNS", "value": 52.4, "unit": "µM"}, {"measurement": "TGI", "setting": "RPMI-8226 leukemia", "value": "> 100", "unit": "µM"}, {"measurement": "TGI", "setting": "CCRF-CEM leukemia", "value": "> 100", "unit": "µM"}, {"measurement": "TGI", "setting": "NCI-H522 lung", "value": 32.3, "unit": "µM"}, {"measurement": "TGI", "setting": "HOP-92 NSCLC", "value": 64, "unit": "µM"}, {"measurement": "TGI", "setting": "U251 CNS", "value": 63, "unit": "µM"}, {"measurement": "TGI", "setting": "OVCAR-4 ovarian", "value": 94.8, "unit": "µM"}, {"measurement": "TGI", "setting": "SF-295 CNS", "value": 63.1, "unit": "µM"}, {"measurement": "TGI", "setting": "OVCAR-5 ovarian", "value": 54, "unit": "µM"}, {"measurement": "TGI", "setting": "KM20L2 colon", "value": "> 100", "unit": "µM"}, {"measurement": "TGI", "setting": "SW-620 colon", "value": 66.6, "unit": "µM"}, {"measurement": "TGI", "setting": "LXFL 529 NSCLC", "value": 57.9, "unit": "µM"}, {"measurement": "TGI", "setting": "A549 NSCLC", "value": 93, "unit": "µM"}, {"measurement": "TGI", "setting": "SK-MEL-2 melanoma", "value": 33.7, "unit": "µM"}, {"measurement": "TGI", "setting": "KM12 colon", "value": 44.9, "unit": "µM"}, {"measurement": "TGI", "setting": "UACC-257 melanoma", "value": 75.5, "unit": "µM"}, {"measurement": "TGI", "setting": "HCT-116 colon", "value": 35.2, "unit": "µM"}]}]}
